# Where two headings read alike, the source gives them in different places.
# Experiments:
# Format in all cases: biochemical
# [1] = molecular target: PLK1 (Homo sapiens, UniProt P53350); assay: PLK TR-FRET peptide assay, PLK1
# [2] = molecular target: PLK2 (Homo sapiens, UniProt Q9NYY3); assay: PLK TR-FRET peptide assay, PLK2; details: for IC50: PLK TR-FRET peptide assay, read-out: Plk2 IC50
# [3] = molecular target: PLK3 (Homo sapiens, UniProt Q9H4B4); assay: PLK TR-FRET peptide assay, PLK3
# [4] = GST-PLK3, 15 min reaction, read-out: Plk3 IC50
# Chain of PLK3 (Q9H4B4 whole entry): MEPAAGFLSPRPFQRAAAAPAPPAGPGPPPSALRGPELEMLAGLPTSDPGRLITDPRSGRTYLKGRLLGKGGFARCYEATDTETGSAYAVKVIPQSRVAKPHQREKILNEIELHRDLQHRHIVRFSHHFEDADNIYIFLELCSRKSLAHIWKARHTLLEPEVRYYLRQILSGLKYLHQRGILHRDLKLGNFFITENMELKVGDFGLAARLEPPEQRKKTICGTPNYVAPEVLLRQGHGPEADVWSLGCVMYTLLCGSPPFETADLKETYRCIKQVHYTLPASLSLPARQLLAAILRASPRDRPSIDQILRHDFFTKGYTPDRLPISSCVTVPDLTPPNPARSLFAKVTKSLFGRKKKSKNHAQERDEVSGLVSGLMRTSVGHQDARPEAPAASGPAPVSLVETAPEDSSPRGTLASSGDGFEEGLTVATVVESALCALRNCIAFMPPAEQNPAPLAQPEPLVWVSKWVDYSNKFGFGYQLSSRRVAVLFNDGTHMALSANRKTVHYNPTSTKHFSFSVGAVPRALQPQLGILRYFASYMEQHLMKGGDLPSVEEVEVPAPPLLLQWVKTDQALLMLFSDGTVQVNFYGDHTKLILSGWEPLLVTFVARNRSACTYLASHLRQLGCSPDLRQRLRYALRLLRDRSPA
# Chain of PLK2 (Q9NYY3 whole entry): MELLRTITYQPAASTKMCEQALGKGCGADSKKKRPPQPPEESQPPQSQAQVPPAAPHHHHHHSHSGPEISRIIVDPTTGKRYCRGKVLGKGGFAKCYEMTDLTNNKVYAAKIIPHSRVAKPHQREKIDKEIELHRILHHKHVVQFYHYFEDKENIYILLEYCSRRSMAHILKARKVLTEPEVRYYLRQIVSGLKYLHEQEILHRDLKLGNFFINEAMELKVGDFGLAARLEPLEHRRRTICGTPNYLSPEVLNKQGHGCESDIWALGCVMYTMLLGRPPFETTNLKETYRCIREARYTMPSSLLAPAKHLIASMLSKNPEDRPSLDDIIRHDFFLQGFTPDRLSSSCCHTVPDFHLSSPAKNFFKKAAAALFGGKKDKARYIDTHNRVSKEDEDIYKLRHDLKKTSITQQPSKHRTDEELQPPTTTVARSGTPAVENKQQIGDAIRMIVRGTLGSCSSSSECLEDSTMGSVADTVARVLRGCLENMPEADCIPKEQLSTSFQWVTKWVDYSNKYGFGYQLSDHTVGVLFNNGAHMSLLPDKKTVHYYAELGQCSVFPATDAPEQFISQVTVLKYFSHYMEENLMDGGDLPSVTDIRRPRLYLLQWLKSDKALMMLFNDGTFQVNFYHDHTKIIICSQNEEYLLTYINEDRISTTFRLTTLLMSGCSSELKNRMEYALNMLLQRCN
# Chain of PLK1 (P53350 whole entry): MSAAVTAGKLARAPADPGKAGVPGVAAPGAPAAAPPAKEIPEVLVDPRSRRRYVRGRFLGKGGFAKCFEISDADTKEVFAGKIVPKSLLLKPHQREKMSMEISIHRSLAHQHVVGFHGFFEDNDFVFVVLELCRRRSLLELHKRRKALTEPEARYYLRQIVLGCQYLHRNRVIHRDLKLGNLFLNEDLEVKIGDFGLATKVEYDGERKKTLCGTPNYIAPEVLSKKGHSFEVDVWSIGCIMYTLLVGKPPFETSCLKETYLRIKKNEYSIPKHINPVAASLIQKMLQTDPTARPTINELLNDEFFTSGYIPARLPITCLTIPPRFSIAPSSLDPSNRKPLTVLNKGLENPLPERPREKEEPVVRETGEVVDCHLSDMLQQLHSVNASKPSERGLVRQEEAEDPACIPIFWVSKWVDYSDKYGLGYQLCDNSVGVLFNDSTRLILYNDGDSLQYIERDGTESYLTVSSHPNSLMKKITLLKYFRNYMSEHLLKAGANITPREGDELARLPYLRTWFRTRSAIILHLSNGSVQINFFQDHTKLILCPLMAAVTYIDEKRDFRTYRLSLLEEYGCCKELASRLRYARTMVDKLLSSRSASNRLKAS
SMILES,"IC50 ([1]; GST-PLK1, 60 min reaction) [µM]","IC50 ([2]; GST-PLK2, 60 min reaction) [µM]","IC50 [3, 4] [µM]",IC50 ([1]; GST-PLK1) [µM],IC50 ([2]; GST-PLK2) [µM],"IC50 ([3]; GST-PLK3, read-out: Plk3 IC50) [µM]",relative PLK2 activity of the enantiomers ([2]; compared with the opposite enantiomer)
"CN1C(=O)C2(CC(F)(F)F)CCCN2c2nc(-n3ccnc3-c3ccccc3)ncc21 (stereo not shown) [Example 339, 5-methyl-2-(2-phenyl-1H-imidazol-1-yl)-6a-(2,2,2-trifluoroethyl)-6a,7,8,9-tetrahydropyrrolo[2,1-h]pteridin-6(5H)-one]",10 to 50,< 1,10 to 50,–,–,–,–
"CC[C@@H]1C(=O)N(C)c2cnc(-n3cnc(C(=O)N(C)C)c3)nc2N1C1CCCC1 [Example 384, (R)-1-(8-cyclopentyl-7-ethyl-5-methyl-6-oxo-5,6,7,8-tetrahydropteridin-2-yl)-N,N-dimethyl-1H-imidazole-4-carboxamide]",–,–,–,1 to 10,1 to 10,10 to 50,–
"CC[C@@]12CCCN1c1nc(-c3cn[nH]c3-c3nccs3)ncc1N(C)C2=O [Example 338, (S)-6a-ethyl-5-methyl-2-(5-(thiazol-2-yl)-1H-pyrazol-4-yl)-6a,7,8,9-tetrahydropyrrolo[2,1-h]pteridin-6(5H)-one]",> 50,10 to 50,> 50,–,–,–,–
"CC[C@@H]1C(=O)N(C)c2cnc(-c3ccncc3CNC(=O)OC)nc2N1C1CCCC1 [Example 121, (R)-methyl (4-(8-cyclopentyl-7-ethyl-5-methyl-6-oxo-5,6,7,8-tetrahydropteridin-2-yl)pyridin-3-yl)methylcarbamate]",10 to 50,1 to 10,10 to 50,–,–,–,–
"CC[C@]12CCCCN1c1nc(-n3ccnc3-c3cccc(F)c3F)ncc1N(C)C2=O [Example 261, (R)-2-(2-(2,3-difluorophenyl)-1H-imidazol-1-yl)-6a-ethyl-5-methyl-7,8,9,10-tetrahydro-5H-pyrido[2,1-h]pteridin-6(6aH)-one]",> 50,1 to 10,> 50,–,–,–,–
"CC[C@@H]1C(=O)N(C)c2cnc(-n3ccnc3N3C(=O)CCC3=O)nc2N1C1CCC1 [Example 112, (R)-1-(1-(8-cyclobutyl-7-ethyl-5-methyl-6-oxo-5,6,7,8-tetrahydropteridin-2-yl)-1H-imidazol-2-yl)pyrrolidine-2,5-dione]",10 to 50,10 to 50,> 50,–,–,–,–
"CC[C@@H]1C(=O)N(C)c2cnc(-n3ccnc3N3CCCC3)nc2N1C1CCCC1 [Example 86, (R)-8-cyclopentyl-7-ethyl-5-methyl-2-(2-(pyrrolidin-1-yl)-1H-imidazol-1-yl)-7,8-dihydropteridin-6(5H)-one]",10 to 50,1 to 10,> 50,–,–,–,–
"CC[C@@H]1C(=O)N(C)c2cnc(-n3ccnc3-c3ccncc3)nc2N1C(C)C [Example 150, (R)-7-ethyl-8-isopropyl-5-methyl-2-(2-(pyridin-4-yl)-1H-imidazol-1-yl)-7,8-dihydropteridin-6(5H)-one]",10 to 50,< 1,1 to 10,–,–,–,–
"CC[C@@]12CCCN1c1nc(-n3ccnc3-c3cc(F)cc(F)c3)ncc1N(C)C2=O [Example 226, (S)-2-(2-(3,5-difluorophenyl)-1H-imidazol-1-yl)-6a-ethyl-5-methyl-6a,7,8,9-tetrahydropyrrolo[2,1-h]pteridin-6(5H)-one]",10 to 50,< 1,10 to 50,–,–,–,–
"CC[C@@H]1C(=O)N(C)c2cnc(-c3ccncc3NC(=O)c3ccccc3)nc2N1C1CCCC1 [Example 102, (R)—N-(4-(8-cyclopentyl-7-ethyl-5-methyl-6-oxo-5,6,7,8-tetrahydropteridin-2-yl)pyridin-3-yl)benzamide]",1 to 10,< 1,1 to 10,–,–,–,–
"[2H]C([2H])([2H])N1C(=O)[C@@H](C([2H])([2H])C([2H])([2H])[2H])N(C([2H])(C([2H])([2H])[2H])C([2H])([2H])[2H])c2nc(-n3ccnc3-c3ccc(F)cc3)ncc21 [Example 200, (R)-7-perdeuteroethyl-2-(2-(4-fluorophenyl)-1H-imidazol-1-yl)-8-perdeuteroisopropyl-5-trideuteromethyl-7,8-dihydropteridin-6(5H)-one]",1 to 10,< 1,1 to 10,–,–,–,more active compound
"[2H]C([2H])([2H])N1C(=O)C(C([2H])([2H])C([2H])([2H])[2H])N(C([2H])(C([2H])([2H])[2H])C([2H])([2H])[2H])c2nc(-n3ccnc3-c3ccc(F)c(F)c3)ncc21 (stereo not shown) [Example 169, 2-(2-(3,4-difluorophenyl)-1H-imidazol-1-yl)-7-perdeuteroethyl-8-perdeuteroisopropyl-5-trideuteromethyl-7,8-dihydropteridin-6(5H)-one]",1 to 10,< 1,10 to 50,–,–,–,–

# More lines, now with the values ahead:
"IC50 ([1]; GST-PLK1, 60 min reaction) [µM]","IC50 ([2]; GST-PLK2, 60 min reaction) [µM]","IC50 [3, 4] [µM]",IC50 ([1]; GST-PLK1) [µM],IC50 ([2]; GST-PLK2) [µM],"IC50 ([3]; GST-PLK3, read-out: Plk3 IC50) [µM]",relative PLK2 activity of the enantiomers ([2]; compared with the opposite enantiomer),SMILES
1 to 10,1 to 10,> 50,–,–,–,–,"CCC1C(=O)N(C)c2cnc(-n3ccnc3)nc2N1c1ccccc1 (stereo not shown) [Example 300, 7-ethyl-2-(1H-imidazol-1-yl)-5-methyl-8-phenyl-7,8-dihydropteridin-6(5H)-one]"
1 to 10,< 1,> 50,–,–,–,–,"CC[C@@H]1C(=O)N(C)c2cnc(-c3cn[nH]c3)nc2N1C(C)C [Example 31, (R)-7-ethyl-8-isopropyl-5-methyl-2-(1H-pyrazol-4-yl)-7,8-dihydropteridin-6(5H)-one]"
1 to 10,< 1,10 to 50,–,–,–,–,"CC[C@@H]1C(=O)N(C)c2cnc(-n3ccnc3-c3ccc(C(F)(F)F)cc3)nc2N1C(C)C [Example 166, (R)-7-ethyl-8-isopropyl-5-methyl-2-(2-(4-(trifluoromethyl)phenyl)-1H-imidazol-1-yl)-7,8-dihydropteridin-6(5H)-one]"
1 to 10,< 1,1 to 10,–,–,–,–,"CC[C@@H]1C(=O)N(C)c2cnc(-n3ccnc3-c3ccc(F)cc3)nc2N1C(C)C [Example 212, (R)-7-ethyl-2-(2-(4-fluorophenyl)-1H-imidazol-1-yl)-8-isopropyl-5-methyl-7,8-dihydropteridin-6(5H)-one]"
1 to 10,< 1,> 50,–,–,–,–,"CC[C@@H]1C(=O)N(C)c2cnc(-c3ccncc3NS(C)(=O)=O)nc2N1C1CCCC1 [Example 116, (R)—N-(4-(8-cyclopentyl-7-ethyl-5-methyl-6-oxo-5,6,7,8-tetrahydropteridin-2-yl)pyridin-3-yl)methanesulfonamide]"
1 to 10,< 1,> 50,–,–,–,–,"CC[C@@H]1C(=O)N(C)c2cnc(-c3ccncc3)nc2N1C(C)C [Example 23, (R)-7-ethyl-8-isopropyl-5-methyl-2-(pyridin-4-yl)-7,8-dihydropteridin-6(5H)-one]"
< 1,< 1,< 1,–,–,–,–,"CC[C@@H]1C(=O)N(C)c2cnc(-c3cn[nH]c3-c3cscn3)nc2N1C1CCCC1 [Example 307, (R)-8-cyclopentyl-7-ethyl-5-methyl-2-(5-(thiazol-4-yl)-1H-pyrazol-4-yl)-7,8-dihydropteridin-6(5H)-one]"
< 1,< 1,1 to 10,–,–,–,–,"CC[C@@H]1C(=O)N(C)c2cnc(-c3cn[nH]c3-c3nccs3)nc2N1C(C)C1CC1 (stereo partly drawn) [Example 357, (7R)-8-(1-cyclopropylethyl)-7-ethyl-5-methyl-2-(5-(thiazol-2-yl)-1H-pyrazol-4-yl)-7,8-dihydropteridin-6(5H)-one]"
< 1,< 1,1 to 10,–,–,–,–,"CC[C@@H]1C(=O)N(C)c2cnc(-n3ccnc3-c3cccc(Br)c3)nc2N1C(C)C [Example 220, (R)-2-(2-(3-bromophenyl)-1H-imidazol-1-yl)-7-ethyl-8-isopropyl-5-methyl-7,8-dihydropteridin-6(5H)-one]"
1 to 10,< 1,1 to 10,–,–,–,–,"CC[C@@H]1C(=O)N(C)c2cnc(-n3ccnc3-c3cc(Cl)cc(Cl)c3)nc2N1C(C)C [Example 185, (R)-2-(2-(3,5-dichlorophenyl)-1H-imidazol-1-yl)-7-ethyl-8-isopropyl-5-methyl-7,8-dihydropteridin-6(5H)-one]"
1 to 10,< 1,> 50,–,–,–,–,"CC[C@@H]1C(=O)N(C)c2cnc(-n3ccnc3C)nc2N1C1CCCC1 [Example 27, (R)-8-cyclopentyl-7-ethyl-5-methyl-2-(2-methyl-1H-imidazol-1-yl)-7,8-dihydropteridin-6(5H)-one]"
1 to 10,< 1,10 to 50,–,–,–,–,"CC[C@@H]1C(=O)N(C)c2cnc(-n3ccnc3Cc3ccccc3)nc2N1C1CCCC1 [Example 75, (R)-2-(2-benzyl-1H-imidazol-1-yl)-8-cyclopentyl-7-ethyl-5-methyl-7,8-dihydropteridin-6(5H)-one]"
< 1,< 1,1 to 10,–,–,–,–,"CC[C@@H]1C(=O)N(C)c2cnc(-n3ccnc3-c3ccc(F)c(F)c3)nc2N1C1CCC(F)(F)C1 (stereo partly drawn) [Example 237, (7R)-8-(3,3-difluorocyclopentyl)-2-(2-(3,4-difluorophenyl)-1H-imidazol-1-yl)-7-ethyl-5-methyl-7,8-dihydropteridin-6(5H)-one]"
1 to 10,< 1,< 1,–,–,–,–,"CC[C@@H]1C(=O)N(C)c2cnc(-c3sc(C#N)nc3-c3ccc(F)cc3)nc2N1C(C)C [Example 354, (R)-5-(7-ethyl-8-isopropyl-5-methyl-6-oxo-5,6,7,8-tetrahydropteridin-2-yl)-4-(4-fluorophenyl)thiazole-2-carbonitrile]"
1 to 10,< 1,10 to 50,–,–,–,–,"CC[C@@]12CCCN1c1nc(-n3ccnc3-c3cccc(Cl)c3)ncc1N(C)C2=O [Example 236, (S)-2-(2-(3-chlorophenyl)-1H-imidazol-1-yl)-6a-ethyl-5-methyl-6a,7,8,9-tetrahydropyrrolo[2,1-h]pteridin-6(5H)-one]"
1 to 10,< 1,1 to 10,–,–,–,–,"CC[C@@H]1C(=O)N(C)c2cnc(-n3ccnc3-c3ccc(F)c(Cl)c3)nc2N1C(C)C [Example 186, (R)-2-(2-(3-chloro-4-fluorophenyl)-1H-imidazol-1-yl)-7-ethyl-8-isopropyl-5-methyl-7,8-dihydropteridin-6(5H)-one]"

# From patent US8541418B2, “Inhibitors of polo-like kinase” (Elan Pharmaceutical, Inc., priority 2009, dated 2013)
